The test system of one assay is SD rats. As to conditions: rat, in vivo.
The subject of the next assay is Male SD rats. The assay is described as follows: J147 dose-response, 2-hour suture MCAO-induced ischemia followed by reperfusion, 72 h (Example 3). In kind it is in vivo, rat.
For a further assay, the system named is male Sprague Dawley rats. The class given is in vivo, rat.
Setting [1] is: J147 1.0, 10, 30 mg/kg at 2 hours after onset of ischemia, 72 h after stroke, dose-dependent manner.

Read-outs that look alike come from different tables or passages of the source.

In the case of `COc1cccc(/C=N/N(C(=O)C(F)(F)F)c2ccc(C)cc2C)c1` [Compound J147], the “protection from stroke in the absence of reperfusion (infarction, TTC-stained sections)” value in the assay on SD rats was “fails to provide any significant protection”. In addition, the “effective optimal dose for the treatment of acute ischemic stroke in rats” value in the assay on Male SD rats (1.0, 10, 30 mg/kg tested) is on record as 10 mg/kg. Besides, in the assay on Male SD rats (setting [1]), the infarct volumes entry is listed as “significantly reduced” and the “neurological deficit after reperfusion (Bederson score)” value is “significantly reduced”. In the assay with male Sprague Dawley rats (iv, doses of 1, 10 and 30 mg/kg tested), the optimal effective dose came out at 10 mg/kg. Also, in the assay with male Sprague Dawley rats (rat, in vivo), the “infarct volume (TTC-stained sections)” value is listed as “large reduction” and the “infarct volume relative to placebo (TTC-stained sections)” value was “insignificant reduction”. In addition, the “infarct volume (TTC-stained sections)” value in the assay with male Sprague Dawley rats (rat, in vivo, ip) is on record as “modest reduction”.

The values above are taken from patent US11938104B1, “Compositions and methods for prevention and treatment of coronavirus and related disorders” (Abrexa Pharmaceuticals, Inc., priority 2021, dated 2024).
